In ChEMBL document CHEMBL1126077 (J Med Chem, 1992):

What was measured:
[1] = molecular target: T1, Cholesterol side-chain cleavage enzyme, mitochondrial (Bos taurus, UniProt P00189); experiment: Inhibition of bovine adrenal desmolase at 25 uM; settings: cattle; for Inhibition: 25 µM
T1 sequence (P00189 whole entry): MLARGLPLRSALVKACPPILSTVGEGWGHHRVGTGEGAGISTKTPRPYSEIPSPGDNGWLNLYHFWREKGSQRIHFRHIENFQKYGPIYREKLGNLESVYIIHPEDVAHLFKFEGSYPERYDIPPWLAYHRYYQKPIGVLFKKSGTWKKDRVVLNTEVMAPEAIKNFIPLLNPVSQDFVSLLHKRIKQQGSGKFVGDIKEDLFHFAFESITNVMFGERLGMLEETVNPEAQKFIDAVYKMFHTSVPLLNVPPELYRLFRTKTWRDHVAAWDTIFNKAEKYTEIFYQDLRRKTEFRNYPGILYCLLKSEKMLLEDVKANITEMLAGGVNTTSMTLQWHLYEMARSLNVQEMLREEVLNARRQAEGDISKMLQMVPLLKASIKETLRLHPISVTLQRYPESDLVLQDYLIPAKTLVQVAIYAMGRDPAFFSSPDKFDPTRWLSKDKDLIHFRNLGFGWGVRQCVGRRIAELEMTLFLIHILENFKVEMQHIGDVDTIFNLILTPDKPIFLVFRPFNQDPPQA

Aromatase = molecular target: T2, Aromatase (Homo sapiens, UniProt P11511)
T2 sequence (P11511 whole entry): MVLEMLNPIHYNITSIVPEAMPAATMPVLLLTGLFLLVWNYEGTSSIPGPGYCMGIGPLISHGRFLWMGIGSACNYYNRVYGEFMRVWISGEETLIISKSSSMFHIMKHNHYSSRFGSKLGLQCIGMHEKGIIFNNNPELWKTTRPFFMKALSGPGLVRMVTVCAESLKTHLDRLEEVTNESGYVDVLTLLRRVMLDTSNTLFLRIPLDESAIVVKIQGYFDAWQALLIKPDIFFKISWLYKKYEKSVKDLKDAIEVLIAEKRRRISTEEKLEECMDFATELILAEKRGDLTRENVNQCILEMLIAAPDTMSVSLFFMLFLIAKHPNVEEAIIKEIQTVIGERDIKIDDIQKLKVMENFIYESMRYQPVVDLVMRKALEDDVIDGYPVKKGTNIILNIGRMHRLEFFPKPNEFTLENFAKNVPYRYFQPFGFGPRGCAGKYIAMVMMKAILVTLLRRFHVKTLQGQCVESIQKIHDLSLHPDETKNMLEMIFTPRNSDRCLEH
Description: Concentration inhibiting Aromatase

[2] = molecular target: T1, Cholesterol side-chain cleavage enzyme, mitochondrial; experiment: Inhibition of bovine adrenal desmolase

| Structure (SMILES) | inhibition at 25 µM [1] [%] | IC50 (Aromatase) [µM] | IC50 [2] [µM] | Inhibition [1] [%] |
| --- | --- | --- | --- | --- |
| CC[C@@]1(c2ccc(N)cc2)CCC(=O)NC1=O | 36 |  |  |  |
| CC[C@]1(c2ccc(N)cc2)CCC(=O)NC1=O | 67 |  |  |  |
| Nc1ccc(C2(C3CCCC3)CCC(=O)NC2=O)cc1 (centres undefined) | 59 | 1.2 |  |  |
| Nc1ccc(C2(C3CCCCC3)CCC(=O)NC2=O)cc1 (single isomer, unassigned; (+)) |  | 0.15 | 82 | 19 |
| Nc1ccc(C2(C3CCCCC3)CCC(=O)NC2=O)cc1 (single isomer, unassigned; (-)) |  | 4.6 |  | 39 |
| Nc1ccc(C2(C3CCCCC3)CCC(=O)NC2=O)cc1 (stereo in doubt; 2) |  | 0.3 | 67 | 31 |
| CCC1(c2ccc(N)cc2)CCC(=O)NC1=O (centres undefined) [AMINOGLUTETHIMIDE] | 57 |  | 29 |  |
